From ChEMBL document CHEMBL2380284, “X-ray crystal structures of the Escherichia coli RNA polymerase in complex with benzoxazinorifamycins” (J Med Chem, 2013)

What was measured:
[1] = Inhibition of rifamycin-resistant Mycobacterium tuberculosis RNA polymerase H445Y mutant after 10 mins by rolling circle transcription assay in presence of DNA nanocircle template NC45
[2] = Inhibition of rifamycin-resistant Mycobacterium tuberculosis RNA polymerase S450L mutant after 10 mins by rolling circle transcription assay in presence of DNA nanocircle template NC45
[3] = Inhibition of rifamycin-resistant Mycobacterium tuberculosis RNA polymerase D435V mutant after 10 mins by rolling circle transcription assay in presence of DNA nanocircle template NC45

## CO[C@H]1/C=C/O[C@@]2(C)Oc3c(C)c(O)c4c(O)c(c(/C=N/N5CCN(C)CC5)c(O)c4c3C2=O)NC(=O)/C(C)=C\C=C\[C@H](C)[C@H](O)[C@@H](C)[C@@H](O)[C@@H](C)[C@H](OC(C)=O)[C@@H]1C [RIFAMPIN]
[1]
  IC50: 610 µM
[2]
  IC50: 109 µM
[3]
  IC50: 465 µM
